Test system: PDE4
Test: Evaluation of PDE4 inhibition (scintillation proximity assay)
Format: biochemical
Conditions: inhibition rate relative to control, test compound at 1 μM
Method: Test Example 1 Evaluation of PDE4 Inhibition
The PDE4 inhibitory activity was measured by using scintillation proximity assay (SPA) as follows: one in which a sample compound dissolved in dimethyl sulfoxide was diluted 10-fold with a buffer solution for reaction containing 50 mM Tris-HCl, pH 7.5, 8.3 mM MgCl2, 1.7 mM EDTA and 0.3 mg/mL bovine serum albumin (BSA) was added at 10 μL/well to a 96-well assay plate. Further, PDE4 diluted 750-fold with a buffer solution for reaction was added at 50 μL/well, then [2,8-^3H]-Adenosine-3′,5′-cyclic phosphate triethylammonium salt diluted 1000-fold with a buffer solution for reaction was added at 40 μL/well, and the plate was left standing at room temperature for 120 minutes. Thereafter, a suspension of RNA binding YSi-SPA Beads containing 200 mM ZnSO4 was added at 50 μL/well, and the plate was left standing at room temperature for 15 minutes to adsorb the enzyme reaction product onto the Beads. Thereafter, the radioactivity was measured with a liquid scintillation counter for 96-well plates. When one supplemented with only a buffer solution for reaction without adding the enzyme preparation was used as a blank and one supplemented with the enzyme preparation but supplemented with only dimethyl sulfoxide instead of the sample solution was used as a control, the inhibition rate of the test compound relative to the control was calculated according to the following calculation expression: Inhibition rate (%)={1−(Numeric value from the addition of each sample−Blank value)/(Control value−Blank value)}×100

SMILES	PDE4 inhibitory activity (1 μM (%))
C[C@H]1CNCCN1c1nc2cc(Cl)cc(-c3ccsn3)c2o1 [Example 54, (S)-5-Chloro-7-(isothiazole-3-yl)-2-(2-methylpiperazin-1-yl)benzoxazole]	92%
C[C@H]1CNCCN1c1nc2cc(C#N)cc(-c3ccccn3)c2o1 [Example 111, (S)-5-Cyano-2-(2-methylpiperazin-1-yl)-7-(pyridin-2-yl)benzoxazole]	83%
COCc1cc(Cl)cc2nc(N3CCNC[C@@H]3C)oc12 [Example 107, (S)-5-Chloro-7-(methoxymethyl)-2-(2-methylpiperazin-1-yl)benzoxazole]	66%
Cc1c(O)c(Cl)cc2nc(N3CCNC[C@@H]3C)oc12 [Example 162, (S)-5-Chloro-6-hydroxy-7-methyl-2-(2-methylpiperazin-1-yl)benzoxazole]	35%
COc1c(Cl)cc2nc(N3CCNC[C@@H]3C)oc2c1-c1nccs1 [Example 141, (S)-5-Chloro-6-methoxy-2-(2-methylpiperazin-1-yl)-7-(thiazol-2-yl)benzoxazole]	77%
C[C@H]1CNCCN1c1nc2cc(Cl)cc(-c3cncs3)c2o1 [Example 38, (S)-5-Chloro-2-(2-methylpiperazin-1-yl)-7-(thiazol-5-yl)benzoxazole]	68%
C[C@@H]1CNCCN1c1nc2c(C(F)(F)F)c(Cl)cc(-c3ccccn3)c2o1 [Example 178, (R)-5-Chloro-2-(2-methylpiperazin-1-yl)-7-(pyridin-2-yl)-4-(trifluoromethyl)benzoxazole]	33%
Cc1cc(-c2ncco2)c2oc(N3CCNC[C@@H]3C)nc2c1 [Example 116, (S)-5-methyl-2-(2-methylpiperazin-1-yl)-7-(oxazol-2-yl)benzoxazole]	80%
C[C@H]1CNCCN1c1nc2cc(Cl)c(C#N)c(-c3nccs3)c2o1 [Example 142, (S)-5-Chloro-6-cyano-2-(2-methylpiperazin-1-yl)-7-(thiazol-2-yl)benzoxazole]	86%
C[C@H]1CNCCN1c1nc2cc(Cl)cc(NC3CCCC3)c2o1 [Example 24, (S)-5-Chloro-7-(cyclopentylamino)-2-(2-methylpiperazin-1-yl)benzoxazole]	27%
C[C@H]1CNCCN1c1nc2cc(Cl)cc(-c3ccccc3CO)c2o1 [Example 48, (S)-5-Chloro-2-(2-methylpiperazin-1-yl)-7-(2-hydroxymethylphenyl)benzoxazole]	53%
COc1cc(Cl)cc2nc(N3CCNC[C@@H]3C)oc12 [Example 2, (S)-5-Chloro-7-methoxy-2-(2-methylpiperazin-1-yl)benzoxazole]	23%
COc1c(Cl)cc2nc(N3CCNC[C@@H]3C)oc2c1OC [Example 169, (S)-5-Chloro-6,7-dimethoxy-2-(2-methylpiperazin-1-yl)benzoxazole]	22%
C[C@H]1CNCCN1c1nc2cc(Cl)cc(-c3ccon3)c2o1 [Example 108, (S)-5-Chloro-7-(isoxazol-3-yl)-2-(2-methylpiperazin-1-yl)benzoxazole]	66%
Cc1cccnc1-c1cc(Cl)cc2nc(N3CCNC[C@@H]3C)oc12 [Example 68, (S)-5-Chloro-2-(2-methylpiperazin-1-yl)-7-(3-methylpyridin-2-yl)benzoxazole]	38%
C[C@H]1CNCCN1c1nc2c(C(F)(F)F)c(Cl)cc(-c3nccs3)c2o1 [Example 84, (S)-5-Chloro-2-(2-methylpiperazin-1-yl)-7-(thiazol-2-yl)-4-(trifluoromethyl)benzoxazole]	95%
Cc1cc(Br)cc2nc(N3CCNC[C@@H]3C)oc12 [Example 6, (S)-5-Bromo-7-methyl-2-(2-methylpiperazin-1-yl)benzoxazole]	36%
C[C@H]1CNCCN1c1nc2cc(Cl)cc(-c3ncc([N+](=O)[O-])s3)c2o1 [Example 78, (S)-5-Chloro-2-(2-methylpiperazin-1-yl)-7-(5-nitrothiazol-2-yl)benzoxazole]	58%
C[C@H]1CNCCN1c1nc2cc(Cl)cc(-c3ccoc3)c2o1 [Example 17, (S)-5-Chloro-7-(furan-3-yl)-2-(2-methylpiperazin-1-yl)benzoxazole]	84%
C[C@@H]1CNCCN1c1nc2c(C(F)(F)F)c(Cl)cc(-c3nccs3)c2o1 [Example 179, (R)-5-Chloro-2-(2-methylpiperazin-1-yl)-7-(thiazol-2-yl)-4-(trifluoromethyl)benzoxazole]	79%

SMILES	PDE4 inhibitory activity (1 μM (%))
CNC(=O)c1cc(Cl)cc2nc(N3CCNC[C@@H]3C)oc12 [Example 100, (S)-5-Chloro-7-methylaminocarbonyl-2-(2-methylpiperazin-1-yl)benzoxazole]	16%
C[C@H]1CNCCN1c1nc2cc(Cl)cc(OC3CCCCC3)c2o1 [Example 52, (S)-5-Chloro-7-(cyclohexyloxy)-2-(2-methylpiperazin-1-yl)benzoxazole]	57%
C[C@H]1CN(c2nc3c(OC(F)(F)F)c(Cl)cc(-c4nccs4)c3o2)CCN1 [Example 177, (S)-5-Chloro-2-(3-methylpiperazin-1-yl)-7-(thiazol-2-yl)-4-(trifluoromethoxy)benzoxazole]	93%
C[C@H]1CNCCN1c1nc2cc(Cl)cc(Br)c2o1 [Example 110, (S)-7-Bromo-5-chloro-2-(2-methylpiperazin-1-yl)benzoxazole]	57%
C[C@H]1CNCCN1c1nc2cc(F)c(C(F)(F)F)c(-c3nccs3)c2o1 [Example 144, (S)-5-Fluoro-2-(2-methylpiperazin-1-yl)-7-(thiazol-2-yl)-6-(trifluoromethyl)benzoxazole]	41%
C[C@H]1CNCCN1c1nc2c(-c3ccco3)cc(Cl)cc2o1 [Example 164, (S)-6-Chloro-4-(furan-2-yl)-2-(2-methylpiperazin-1-yl)benzoxazole]	75%
C[C@H]1CNCCN1c1nc2cc(Cl)c(F)c(-c3ccccn3)c2o1 [Example 92, (S)-5-Chloro-6-fluoro-2-(2-methylpiperazin-1-yl)-7-(pyridin-2-yl)benzoxazole]	71%
CC(C)c1cc(Cl)cc2nc(N3CCNC[C@@H]3C)oc12 [Example 1, (S)-5-Chloro-7-isopropyl-2-(2-methylpiperazin-1-yl)benzoxazole]	87%
C[C@H]1CNCCN1c1nc2c(F)c(Cl)c(F)c(-c3nccs3)c2o1 [Example 121, (S)-5-Chloro-4,6-difluoro-2-(2-methylpiperazin-1-yl)-7-(thiazol-2-yl)benzoxazole]	62%
C[C@H]1CNCCN1c1nc2cc(Cl)cc(-c3nccn3C)c2o1 [Example 49, (S)-5-Chloro-7-(1-methyl-1H-imidazol-2-yl)-2-(2-methylpiperazin-1-yl)-benzoxazole]	17%
C[C@H]1CNCCN1c1nc2cc(F)cc(-c3ncco3)c2o1 [Example 104, (S)-5-Fluoro-2-(2-methylpiperazin-1-yl)-7-(oxazol-2-yl)benzoxazole]	88%
C[C@H]1CNCCN1c1nc2cc(Cl)cc(-c3ncco3)c2o1 [Example 34, (S)-5-Chloro-2-(2-methylpiperazin-1-yl)-7-(oxazol-2-yl)benzoxazole]	89%
C[C@H]1CNCCN1c1nc2c(-c3ccccc3)c(Cl)cc(-c3ccccn3)c2o1 [Example 148, (S)-5-Chloro-2-(2-methylpiperazin-1-yl)-4-phenyl-7-(pyridin-2-yl)benzoxazole]	94%
C[C@H]1CNCCN1c1nc2cc(Cl)cc(N3CCOCC3)c2o1 [Example 21, (S)-5-Chloro-2-(2-methylpiperazin-1-yl)-7-(morpholin-1-yl)benzoxazole]	59%
C[C@H]1CNCCN1c1nc2c(C3CC3)c(Cl)cc(-c3ccccn3)c2o1 [Example 149, (S)-5-Chloro-4-cyclopropyl-2-(2-methylpiperazin-1-yl)-7-(pyridin-2-yl)benzoxazole]	91%
C[C@H]1CNCCN1c1nc2cc(Cl)cc(-c3ncccn3)c2o1 [Example 56, (S)-5-Chloro-2-(2-methylpiperazin-1-yl)-7-(pyrimidin-2-yl)benzoxazole]	87%
Cc1cc(F)cc2nc(N3CCNC[C@@H]3C)oc12 [Example 5, (S)-5-Fluoro-7-methyl-2-(2-methylpiperazin-1-yl)benzoxazole]	25%
CCN(CC)c1cc(Cl)cc2nc(N3CCNC[C@@H]3C)oc12 [Example 25, (S)-5-Chloro-7-diethylamino-2-(2-methylpiperazin-1-yl)benzoxazole]	53%
Cc1c(Cl)cc2nc(N3CCNC[C@@H]3C)oc2c1-c1ccccn1 [Example 137, (S)-5-Chloro-6-methyl-2-(2-methylpiperazin-1-yl)-7-(pyridin-2-yl)benzoxazole]	33%
C[C@H]1CNCCN1c1nc2cc(Cl)cc(-c3cscn3)c2o1 [Example 37, (S)-5-Chloro-2-(2-methylpiperazin-1-yl)-7-(thiazol-4-yl)benzoxazole]	98%
